Measurements reported in ChEMBL document CHEMBL1909046, “DrugMatrix in vitro pharmacology data”.

How the values were obtained:
[1] = biological target: T1, Alpha-2C adrenergic receptor (Homo sapiens, UniProt P18825); assay: DRUGMATRIX: Adrenergic Alpha-2C radioligand binding (ligand: [3H] MK-912); type: cell membranes, Sf9, Membrane; conditions: sf9; further: call rule not given here
T1 sequence (P18825 whole entry): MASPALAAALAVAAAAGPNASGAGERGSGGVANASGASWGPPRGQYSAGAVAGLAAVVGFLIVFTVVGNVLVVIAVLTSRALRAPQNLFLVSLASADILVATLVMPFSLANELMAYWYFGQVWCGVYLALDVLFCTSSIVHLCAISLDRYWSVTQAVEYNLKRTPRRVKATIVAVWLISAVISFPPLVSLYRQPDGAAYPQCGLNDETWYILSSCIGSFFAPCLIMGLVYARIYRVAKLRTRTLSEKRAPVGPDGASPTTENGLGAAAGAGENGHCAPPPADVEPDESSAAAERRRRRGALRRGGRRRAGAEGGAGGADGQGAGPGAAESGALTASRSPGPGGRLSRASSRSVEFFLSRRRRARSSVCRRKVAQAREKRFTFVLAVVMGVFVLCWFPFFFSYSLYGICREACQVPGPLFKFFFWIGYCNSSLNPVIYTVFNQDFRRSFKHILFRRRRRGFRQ

[2] = biological target: T2, B2 bradykinin receptor (Homo sapiens, UniProt P30411); type: cell membranes, Membrane; conditions: chem-1; further: in other assays of this panel Not Active means under 50% inhibition at 10 µM
T2 sequence (P30411 whole entry): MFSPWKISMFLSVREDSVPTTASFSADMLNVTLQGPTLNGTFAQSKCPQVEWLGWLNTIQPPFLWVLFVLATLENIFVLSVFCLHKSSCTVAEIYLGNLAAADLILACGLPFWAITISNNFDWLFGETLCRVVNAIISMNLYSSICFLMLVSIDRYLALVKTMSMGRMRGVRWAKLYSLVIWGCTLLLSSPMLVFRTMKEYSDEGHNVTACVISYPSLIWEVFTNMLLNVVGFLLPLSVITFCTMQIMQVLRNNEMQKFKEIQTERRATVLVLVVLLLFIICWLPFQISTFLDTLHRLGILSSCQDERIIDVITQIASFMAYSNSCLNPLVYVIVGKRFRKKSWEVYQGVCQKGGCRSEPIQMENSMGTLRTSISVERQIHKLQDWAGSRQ

[3] = biological target: T3, C-C chemokine receptor type 4 (Homo sapiens, UniProt P51679); type: cell membranes, Membrane; conditions: chem-1; further: in other assays of this panel Not Active means under 50% inhibition at 10 µM
T3 sequence (P51679 whole entry): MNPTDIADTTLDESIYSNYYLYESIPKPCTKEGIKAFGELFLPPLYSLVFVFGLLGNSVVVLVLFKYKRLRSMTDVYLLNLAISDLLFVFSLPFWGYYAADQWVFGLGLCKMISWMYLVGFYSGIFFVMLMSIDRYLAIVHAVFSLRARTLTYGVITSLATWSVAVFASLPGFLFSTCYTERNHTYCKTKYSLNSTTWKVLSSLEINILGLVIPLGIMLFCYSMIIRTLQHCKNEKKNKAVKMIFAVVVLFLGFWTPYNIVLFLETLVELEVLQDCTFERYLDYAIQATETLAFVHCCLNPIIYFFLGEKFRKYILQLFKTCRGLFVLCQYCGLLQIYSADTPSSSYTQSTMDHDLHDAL

[4] = biological target: T4, C-X-C chemokine receptor type 2 (Homo sapiens, UniProt P25025); type: cell membranes, Membrane; conditions: cho-k1; further: in other assays of this panel Not Active means under 50% inhibition at 10 µM
T4 sequence (P25025 whole entry): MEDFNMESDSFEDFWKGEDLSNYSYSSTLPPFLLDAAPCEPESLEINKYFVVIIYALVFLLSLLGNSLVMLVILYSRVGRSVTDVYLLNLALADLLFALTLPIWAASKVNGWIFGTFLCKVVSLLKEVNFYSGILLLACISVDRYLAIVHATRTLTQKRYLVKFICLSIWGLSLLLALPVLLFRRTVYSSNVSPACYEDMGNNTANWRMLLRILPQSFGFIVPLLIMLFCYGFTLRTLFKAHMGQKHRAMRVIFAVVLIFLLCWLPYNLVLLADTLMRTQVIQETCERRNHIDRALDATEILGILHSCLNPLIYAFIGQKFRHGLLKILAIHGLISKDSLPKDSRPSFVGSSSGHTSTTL

[5] = biological target: T5, Endothelin-1 receptor (Homo sapiens, UniProt P25101); type: cell membranes, Membrane; conditions: cho-k1; further: in other assays of this panel Not Active means under 50% inhibition at 10 µM
T5 sequence (P25101 whole entry): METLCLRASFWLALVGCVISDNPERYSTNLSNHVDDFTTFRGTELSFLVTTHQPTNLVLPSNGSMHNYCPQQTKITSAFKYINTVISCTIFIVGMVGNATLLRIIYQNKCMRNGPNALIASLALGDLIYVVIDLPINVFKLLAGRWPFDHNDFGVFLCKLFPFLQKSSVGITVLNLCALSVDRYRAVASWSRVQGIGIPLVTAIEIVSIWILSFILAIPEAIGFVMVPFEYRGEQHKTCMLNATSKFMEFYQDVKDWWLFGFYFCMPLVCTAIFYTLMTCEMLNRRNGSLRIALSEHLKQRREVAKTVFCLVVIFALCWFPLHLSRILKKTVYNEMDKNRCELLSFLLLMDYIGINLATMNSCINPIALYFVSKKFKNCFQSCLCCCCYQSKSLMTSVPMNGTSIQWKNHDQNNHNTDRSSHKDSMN

[6] = biological target: Glycine receptor (Rattus norvegicus, UniProt P22771+P24524+P07727+P20781); type: cell membranes, Wistar, Spinal cord, Membrane; further: in other assays of this panel Not Active means under 50% inhibition at 10 µM
[7] = biological target: Melanocortin receptor 5 (Homo sapiens, UniProt P33032); type: cell membranes, Membrane; conditions: hek293; further: in other assays of this panel Not Active means under 50% inhibition at 10 µM
[8] = biological target: Nitric oxide synthase 1 (Rattus norvegicus, UniProt P29476); type: tissue-based, Cerebellum; further: in other assays of this panel Not Active means under 50% inhibition at 10 µM
[9] = biological target: T6, Neutrophil elastase (Homo sapiens, UniProt P08246); type: tissue-based
T6 sequence (P08246 whole entry): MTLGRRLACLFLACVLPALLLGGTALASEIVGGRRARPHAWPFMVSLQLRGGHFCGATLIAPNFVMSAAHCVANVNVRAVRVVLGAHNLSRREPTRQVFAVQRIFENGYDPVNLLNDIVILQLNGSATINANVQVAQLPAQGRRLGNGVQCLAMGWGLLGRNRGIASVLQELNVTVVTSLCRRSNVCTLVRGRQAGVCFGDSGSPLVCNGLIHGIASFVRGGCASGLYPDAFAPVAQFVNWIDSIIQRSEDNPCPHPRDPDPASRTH

[10] = biological target: Matrix metalloproteinase-9 (Homo sapiens, UniProt P14780); assay: biochemical; type: cell-based
[11] = biological target: Receptor tyrosine-protein kinase erbB-2 (Homo sapiens, UniProt P04626); assay: biochemical; type: cell-based, Insect cells; conditions: insect cells
Receptor tyrosine-protein kinase erbB-2, sequence (P04626 whole entry): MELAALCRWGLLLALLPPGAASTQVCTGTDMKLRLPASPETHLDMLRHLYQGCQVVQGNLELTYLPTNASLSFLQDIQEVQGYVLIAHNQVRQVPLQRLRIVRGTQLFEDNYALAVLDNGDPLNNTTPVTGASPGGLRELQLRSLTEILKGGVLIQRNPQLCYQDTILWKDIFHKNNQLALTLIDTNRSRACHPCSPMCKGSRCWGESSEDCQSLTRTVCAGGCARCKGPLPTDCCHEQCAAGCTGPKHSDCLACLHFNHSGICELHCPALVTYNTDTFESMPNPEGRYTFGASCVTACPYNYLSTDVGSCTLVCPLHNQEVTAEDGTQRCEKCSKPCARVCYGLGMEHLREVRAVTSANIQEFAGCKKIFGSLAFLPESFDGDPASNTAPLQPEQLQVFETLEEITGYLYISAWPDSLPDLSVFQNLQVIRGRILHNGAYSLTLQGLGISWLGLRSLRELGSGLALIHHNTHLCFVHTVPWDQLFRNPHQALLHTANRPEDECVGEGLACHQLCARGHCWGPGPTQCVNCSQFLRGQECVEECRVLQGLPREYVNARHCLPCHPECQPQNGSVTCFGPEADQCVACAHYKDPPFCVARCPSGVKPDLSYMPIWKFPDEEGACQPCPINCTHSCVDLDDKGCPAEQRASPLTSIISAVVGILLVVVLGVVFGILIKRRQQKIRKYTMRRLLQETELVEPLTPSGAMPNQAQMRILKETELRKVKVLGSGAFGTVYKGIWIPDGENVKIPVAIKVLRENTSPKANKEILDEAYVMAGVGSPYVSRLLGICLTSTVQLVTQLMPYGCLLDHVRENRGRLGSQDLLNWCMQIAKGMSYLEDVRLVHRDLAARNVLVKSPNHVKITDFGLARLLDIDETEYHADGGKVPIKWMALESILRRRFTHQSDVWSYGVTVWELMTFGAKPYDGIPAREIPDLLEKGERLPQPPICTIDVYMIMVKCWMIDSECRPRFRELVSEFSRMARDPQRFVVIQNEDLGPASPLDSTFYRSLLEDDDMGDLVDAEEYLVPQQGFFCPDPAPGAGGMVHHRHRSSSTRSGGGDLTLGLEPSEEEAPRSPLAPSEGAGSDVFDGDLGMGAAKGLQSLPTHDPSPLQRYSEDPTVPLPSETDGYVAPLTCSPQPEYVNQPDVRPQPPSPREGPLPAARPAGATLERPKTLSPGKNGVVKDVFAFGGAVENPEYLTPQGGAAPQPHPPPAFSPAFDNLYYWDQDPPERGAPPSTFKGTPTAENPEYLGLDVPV

Melanocortin receptor 5, sequence (P33032 whole entry): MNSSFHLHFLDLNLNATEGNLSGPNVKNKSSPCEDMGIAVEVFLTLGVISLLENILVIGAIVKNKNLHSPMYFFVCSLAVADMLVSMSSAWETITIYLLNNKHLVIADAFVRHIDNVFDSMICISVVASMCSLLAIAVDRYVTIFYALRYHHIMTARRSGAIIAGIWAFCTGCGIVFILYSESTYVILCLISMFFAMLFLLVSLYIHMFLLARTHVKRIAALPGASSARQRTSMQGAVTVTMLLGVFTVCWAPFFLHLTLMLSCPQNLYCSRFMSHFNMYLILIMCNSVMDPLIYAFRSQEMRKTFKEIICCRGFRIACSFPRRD
Nitric oxide synthase 1, sequence (P29476 whole entry): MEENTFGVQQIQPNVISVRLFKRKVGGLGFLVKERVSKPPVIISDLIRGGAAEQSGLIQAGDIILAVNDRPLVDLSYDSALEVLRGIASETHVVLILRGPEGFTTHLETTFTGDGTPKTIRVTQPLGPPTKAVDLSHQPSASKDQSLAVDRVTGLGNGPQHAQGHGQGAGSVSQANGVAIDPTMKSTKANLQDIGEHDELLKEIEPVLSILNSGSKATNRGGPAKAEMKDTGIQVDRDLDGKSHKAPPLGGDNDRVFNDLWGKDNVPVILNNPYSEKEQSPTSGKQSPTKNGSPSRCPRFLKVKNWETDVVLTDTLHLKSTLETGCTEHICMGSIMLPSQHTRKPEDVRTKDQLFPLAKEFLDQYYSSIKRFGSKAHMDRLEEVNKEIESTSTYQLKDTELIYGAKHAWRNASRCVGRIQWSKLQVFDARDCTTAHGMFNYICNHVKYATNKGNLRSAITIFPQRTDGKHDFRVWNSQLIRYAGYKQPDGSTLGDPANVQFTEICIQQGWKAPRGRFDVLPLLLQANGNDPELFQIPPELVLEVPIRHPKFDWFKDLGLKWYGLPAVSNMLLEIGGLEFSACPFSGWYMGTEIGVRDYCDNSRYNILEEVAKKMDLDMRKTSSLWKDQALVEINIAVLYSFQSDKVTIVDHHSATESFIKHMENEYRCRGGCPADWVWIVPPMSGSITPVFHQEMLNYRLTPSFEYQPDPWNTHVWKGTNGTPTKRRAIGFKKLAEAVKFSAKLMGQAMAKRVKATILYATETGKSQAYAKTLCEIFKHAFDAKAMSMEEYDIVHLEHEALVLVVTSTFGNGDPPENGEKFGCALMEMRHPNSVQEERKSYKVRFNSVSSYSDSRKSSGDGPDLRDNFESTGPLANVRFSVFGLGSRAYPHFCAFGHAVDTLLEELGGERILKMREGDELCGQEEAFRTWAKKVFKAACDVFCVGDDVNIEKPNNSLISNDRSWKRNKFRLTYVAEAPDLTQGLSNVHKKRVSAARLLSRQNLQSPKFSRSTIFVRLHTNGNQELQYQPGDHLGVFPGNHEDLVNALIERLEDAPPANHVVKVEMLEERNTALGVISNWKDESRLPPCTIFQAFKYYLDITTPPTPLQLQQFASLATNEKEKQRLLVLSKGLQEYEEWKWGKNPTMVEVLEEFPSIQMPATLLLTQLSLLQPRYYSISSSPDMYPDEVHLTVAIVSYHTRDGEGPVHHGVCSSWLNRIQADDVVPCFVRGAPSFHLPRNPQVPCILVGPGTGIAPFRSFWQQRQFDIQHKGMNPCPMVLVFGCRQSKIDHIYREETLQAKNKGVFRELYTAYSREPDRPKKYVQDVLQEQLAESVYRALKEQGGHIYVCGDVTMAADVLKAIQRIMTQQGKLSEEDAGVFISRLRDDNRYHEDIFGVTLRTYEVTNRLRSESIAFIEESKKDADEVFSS
Matrix metalloproteinase-9, sequence (P14780 whole entry): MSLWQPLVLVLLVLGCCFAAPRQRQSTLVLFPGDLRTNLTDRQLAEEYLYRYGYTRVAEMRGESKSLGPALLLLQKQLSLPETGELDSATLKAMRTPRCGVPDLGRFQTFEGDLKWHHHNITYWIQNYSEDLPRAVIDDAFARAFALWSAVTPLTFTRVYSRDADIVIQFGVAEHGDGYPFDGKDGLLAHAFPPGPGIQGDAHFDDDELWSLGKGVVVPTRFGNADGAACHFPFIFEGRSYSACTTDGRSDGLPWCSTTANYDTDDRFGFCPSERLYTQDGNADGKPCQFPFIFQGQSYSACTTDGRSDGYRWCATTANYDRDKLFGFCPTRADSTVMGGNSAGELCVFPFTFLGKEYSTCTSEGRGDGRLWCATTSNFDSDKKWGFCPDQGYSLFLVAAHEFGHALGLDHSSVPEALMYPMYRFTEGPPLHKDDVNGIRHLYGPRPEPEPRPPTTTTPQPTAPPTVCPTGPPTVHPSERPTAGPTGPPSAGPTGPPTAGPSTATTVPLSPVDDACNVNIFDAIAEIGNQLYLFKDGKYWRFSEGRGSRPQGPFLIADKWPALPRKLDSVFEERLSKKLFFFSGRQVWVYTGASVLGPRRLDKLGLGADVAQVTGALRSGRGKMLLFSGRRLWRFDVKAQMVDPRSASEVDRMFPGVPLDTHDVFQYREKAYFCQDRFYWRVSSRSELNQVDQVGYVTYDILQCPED

CN1C(C(=O)Nc2ccccn2)=C(O)c2sccc2S1(=O)=O [TENOXICAM]
Not Active: IC50 [1] | IC50 [2] | IC50 [3] | IC50 [4] | IC50 [5] | IC50 [6] | IC50 [7] | IC50 [8] | IC50 [9] | IC50 [10] | IC50 [11]

O=C1CCC(N2C(=O)c3ccccc3C2=O)C(=O)N1 (centres undefined) [THALIDOMIDE]
Not Active: IC50 [1] | IC50 [2] | IC50 [3] | IC50 [4] | IC50 [5] | IC50 [6] | IC50 [7] | IC50 [8] | IC50 [9] | IC50 [10] | IC50 [11]

Cc1cccc(Nc2ccncc2S(=O)(=O)NC(=O)NC(C)C)c1 [TORSEMIDE]
Not Active: IC50 [1] | Ki [2] | IC50 [3] | IC50 [4] | IC50 [5] | IC50 [6] | IC50 [7] | IC50 [8] | IC50 [9] | IC50 [10] | IC50 [11]

CC(C)C[C@H](NC(=O)[C@@H](O)[C@H](N)Cc1ccccc1)C(=O)O [UBENIMEX]
Not Active: IC50 [1] | IC50 [2] | IC50 [3] | IC50 [4] | IC50 [5] | IC50 [6] | IC50 [7] | IC50 [8] | IC50 [9] | IC50 [10] | IC50 [11]

Cc1onc(-c2ccccc2)c1-c1ccc(S(N)(=O)=O)cc1 [VALDECOXIB]
Not Active: IC50 [1] | IC50 [2] | IC50 [3] | IC50 [4] | Ki [5] | IC50 [6] | IC50 [7] | IC50 [8] | IC50 [9] | IC50 [10] | IC50 [11]

CC[C@]1(O)C[C@@H]2CN(CCc3c([nH]c4ccccc34)[C@@](C(=O)OC)(c3cc4c(cc3OC)N(C)[C@H]3[C@@](O)(C(=O)OC)[C@H](OC(C)=O)[C@]5(CC)C=CCN6CC[C@]43[C@@H]65)C2)C1 [VINBLASTINE]
Not Active: IC50 [1] | IC50 [2] | IC50 [3] | IC50 [4] | IC50 [5] | IC50 [6] | IC50 [7] | IC50 [8] | IC50 [9] | IC50 [10] | IC50 [11]

CC(=O)CC(c1ccccc1)c1c(O)c2ccccc2oc1=O (centres undefined) [WARFARIN]
Not Active: IC50 [1] | IC50 [2] | IC50 [3] | IC50 [4] | IC50 [5] | IC50 [6] | IC50 [7] | IC50 [8] | IC50 [9] | IC50 [10] | IC50 [11]

C[C@@H](N)[C@H]1CC[C@H](C(=O)Nc2ccncc2)CC1 [Y-27632]
Not Active: IC50 [1] | IC50 [2] | IC50 [3] | IC50 [4] | IC50 [5] | IC50 [6] | IC50 [7] | IC50 [8] | IC50 [9] | IC50 [10] | IC50 [11]

[Cl-].[Cl-].[Zn+2] [ZINC CHLORIDE]
Not Active: IC50 [1] | IC50 [2] | IC50 [3] | IC50 [4] | IC50 [5] | IC50 [6] | IC50 [7] | IC50 [8] | IC50 [9] | IC50 [10] | IC50 [11]
